Test results as given in ChEMBL document CHEMBL5543151, “Rational Design of a Novel Class of Human ClpP Agonists through a Ring-Opening Strategy with Enhanced Antileukemia Activity” (J Med Chem, 2024).

Key:
[1] = target: T1, ATP-dependent Clp protease proteolytic subunit, mitochondrial (Homo sapiens, UniProt Q16740); experiment: Agonist activity at human Casein lysing protease P (HsClpP) assessed as increase in peptidase activity using fluorescent peptide AC-WLA-AMC as substrate measured after 2 hrs by […]
MV4-11 [2] = experiment: Anti-leukemia activity against human MV4-11 cells assessed as decrease in cell proliferation incubated for 72 hrs by CCK-8 assay; format: functional, cell-based; conditions: MV4-11, 72 h
MV4-11 [3] = experiment: Potency index, ratio of ONC201 IC50 to test compound IC50 for anti-leukemia activity against human MV4-11 cells assessed as decrease in cell proliferation incubated for 72 hrs by CCK-8 assay; format: functional
[4] = Half life in Sprague-Dawley rat at 15 mg/kg, po measured upto 12 hrs by LC-MS analysis; format: ADME, organism-based; conditions: in vivo
[5] = AUC(0 to 12hrs) in Sprague-Dawley rat at 5 mg/kg, iv measured upto 12 hrs by LC-MS analysis; format: ADME, organism-based; conditions: in vivo
[6] = Bioavailability in Sprague-Dawley rat at 5 mg/kg, iv measured upto 12 hrs by LC-MS analysis; format: ADME, organism-based; conditions: in vivo
[7] = Tmax in Sprague-Dawley rat at 15 mg/kg, po measured upto 12 hrs by LC-MS analysis; format: ADME, organism-based; conditions: in vivo
[8] = Half life in Sprague-Dawley rat at 5 mg/kg, iv measured upto 12 hrs by LC-MS analysis; format: ADME, organism-based; conditions: in vivo
[9] = MRT (0 to 12hrs) in Sprague-Dawley rat at 5 mg/kg, iv measured upto 12 hrs by LC-MS analysis; format: ADME, organism-based; conditions: in vivo
[10] = Cmax in Sprague-Dawley rat at 15 mg/kg, po measured upto 12 hrs by LC-MS analysis; format: ADME, organism-based; conditions: in vivo
[11] = Clearance in Sprague-Dawley rat at 5 mg/kg, iv measured upto 12 hrs by LC-MS analysis; format: ADME, organism-based; conditions: in vivo
[12] = MRT (0 to 12hrs) in Sprague-Dawley rat at 15 mg/kg, po measured upto 12 hrs by LC-MS analysis; format: ADME, organism-based; conditions: in vivo
[13] = AUC(0 to 12hrs) in Sprague-Dawley rat at 15 mg/kg, po measured upto 12 hrs by LC-MS analysis; format: ADME, organism-based; conditions: in vivo
[14] = Cmax in Sprague-Dawley rat at 5 mg/kg, iv measured upto 12 hrs by LC-MS analysis; format: ADME, organism-based; conditions: in vivo
[15] = target: T1, ATP-dependent Clp protease proteolytic subunit, mitochondrial; conditions: filed as agonist, dose 10.0 µM, time 2.0 hrs

T1 sequence (Q16740 whole entry): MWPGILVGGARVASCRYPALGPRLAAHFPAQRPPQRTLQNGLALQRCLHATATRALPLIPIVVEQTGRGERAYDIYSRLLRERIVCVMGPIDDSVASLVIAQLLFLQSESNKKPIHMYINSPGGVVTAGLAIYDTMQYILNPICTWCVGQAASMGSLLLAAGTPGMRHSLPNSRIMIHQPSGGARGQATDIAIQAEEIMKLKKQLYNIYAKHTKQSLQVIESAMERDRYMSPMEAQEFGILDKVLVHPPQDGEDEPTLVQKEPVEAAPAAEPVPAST

Structure (SMILES) | EC50 [1] [nM] | IC50 (MV4-11 [2]) [nM] | other results
Cc1cccc(CNc2nc(=O)c3c([nH]2)CCN(Cc2ccccc2)C3)c1 | > 10000 | 1630 | 
O=c1nc(NCc2ccccc2)[nH]c2c1CN(CC1CC1)CC2 | > 10000 | > 10000 | 
O=c1nc(NCc2cccc(Cl)c2)[nH]c2c1CN(Cc1ccccc1)CC2 | > 10000 | 1880 | 
O=c1nc(NCc2ccc3ccccc3c2)[nH]c2c1CN(Cc1ccccc1)CC2 | 2250 | 2400 | 
Cc1ccc(CN2CCc3[nH]c(NCc4ccccc4)nc(=O)c3C2)cc1 | > 10000 | > 10000 | 
O=c1nc(NCc2ccc(Cl)c(Cl)c2)[nH]c2c1CN(Cc1ccccc1)CC2 | 610 | 450 | 
Cc1ccccc1CN1CCc2[nH]c(NCc3ccccc3)nc(=O)c2C1 | > 10000 | > 10000 | 
N#Cc1cccc(CN2CCc3[nH]c(NCc4ccc(F)c(F)c4)nc(=O)c3C2)c1 | 870 | 30 | Ratio IC50 (MV4-11 [3]): 20
O=c1nc(NCc2ccccc2)[nH]c2c1CN(Cc1ccc(Cl)cc1)CC2 | 1210 | 970 | 
O=c1nc(NCc2cccc(F)c2)[nH]c2c1CN(Cc1ccccc1)CC2 | > 10000 | > 10000 | 
Cc1ccccc1CNc1nc(=O)c2c([nH]1)CCN(Cc1ccccc1)C2 | 1220 | 1510 | 
O=c1nc(NCc2ccc(F)c(F)c2)[nH]c2c1CN(Cc1ccccc1)CC2 | 1410 | 480 | 
O=c1nc(NCc2cnccn2)[nH]c2c1CN(Cc1ccccc1)CC2 | > 10000 | > 10000 | 
COc1cccc(CNc2nc(=O)c3c([nH]2)CCN(Cc2ccccc2)C3)c1 | > 10000 | > 10000 | 
O=c1nc(NCc2ccccc2)[nH]c2c1CN(Cc1ccccc1F)CC2 | > 10000 | > 10000 | 
O=c1nc(NCc2ccc3c(c2)OCO3)[nH]c2c1CN(Cc1cc(F)cc(F)c1)CC2 | > 10000 | > 10000 | 
CS(=O)(=O)c1ccc(CN2CCc3[nH]c(NCc4ccccc4)nc(=O)c3C2)cc1 | > 10000 | > 10000 | 
O=c1nc(NCc2ccc(Br)cc2)[nH]c2c1CN(Cc1ccccc1)CC2 | 1950 | 930 | 
O=c1nc(NCc2ccccc2Cl)[nH]c2c1CN(Cc1ccccc1)CC2 | > 10000 | > 10000 | 
O=c1nc(NCc2cccc(Br)c2)[nH]c2c1CN(Cc1ccccc1)CC2 | > 10000 | > 10000 | 

Structure (SMILES) | EC50 [1] [nM] | IC50 (MV4-11 [2]) [nM] | other results
O=c1nc(NCc2cccnc2)[nH]c2c1CN(Cc1ccccc1)CC2 | > 10000 | > 10000 | 
O=c1nc(NCc2ccccc2)[nH]c2c1CN(Cc1ccc(Cl)c(Cl)c1)CC2 | 1000 | 360 | 
Cc1ccc(CNc2nc(=O)c3c([nH]2)CCN(Cc2ccccc2)C3)cc1 | 1110 | 1610 | 
N#Cc1cccc(CN2CCc3[nH]c(NCc4cccc(F)c4)nc(=O)c3C2)c1 | > 10000 | > 10000 | 
O=c1nc(NCc2ccc(C(F)(F)F)cc2)[nH]c2c1CN(Cc1cc(F)cc(F)c1)CC2 | > 10000 | > 10000 | 
COc1ccc(CNc2nc(=O)c3c([nH]2)CCN(Cc2ccccc2)C3)cc1 | 2020 | 830 | 
N#Cc1ccccc1CN1CCc2[nH]c(NCc3ccccc3)nc(=O)c2C1 | > 10000 | > 10000 | 
O=c1nc(NCC2CCCCC2)[nH]c2c1CN(Cc1ccccc1)CC2 | > 10000 | > 10000 | 
O=c1nc(NCc2ccccc2)[nH]c2c1CN(Cc1cccc(F)c1)CC2 | 2020 | 830 | 
Cc1ccccc1CN1CCn2c1nc(=O)c1c2CCN(Cc2ccccc2)C1 | 1920 | 350 | 
O=c1nc(NCc2ccc(Cl)cc2)[nH]c2c1CN(Cc1ccccc1)CC2 | 1950 | 1690 | 
O=c1nc(NCc2ccccc2)[nH]c2c1CN(Cc1ccc(F)cc1)CC2 | > 10000 | > 10000 | 
CCN1CCc2[nH]c(NCc3ccccc3)nc(=O)c2C1 | > 10000 | > 10000 | 
N#Cc1cccc(CN2CCc3[nH]c(NCc4ccc(Cl)c(Cl)c4)nc(=O)c3C2)c1 | 820 | 60 | 
COc1cccc(CN2CCc3[nH]c(NCc4ccccc4)nc(=O)c3C2)c1 | > 10000 | 1680 | 
CCNc1nc(=O)c2c([nH]1)CCN(Cc1ccccc1)C2 | > 10000 | > 10000 | 
O=c1nc(NCc2ccccc2)[nH]c2c1CN(Cc1ccccc1Cl)CC2 | 1350 | 1030 | 
Cc1ccccc1CNc1nc(=O)c2c([nH]1)CCN(Cc1cc(F)cc(F)c1)C2 | > 10000 | > 10000 | 
O=c1[nH]c(NCCc2ccccc2)nc2c1CN(Cc1ccccc1)CC2 | > 10000 | > 10000 | 
O=c1nc(NCc2ccc(C(F)(F)F)cc2)[nH]c2c1CN(Cc1ccc(Cl)c(Cl)c1)CC2 | > 10000 | > 10000 | 

Structure (SMILES) | EC50 [1] [nM] | IC50 (MV4-11 [2]) [nM] | other results
Cc1ccccc1CN1C(=O)C2=C(CCN(Cc3ccccc3)C2)N2CCN=C12.Cl |  |  | half-life [4]: 1.4 h; AUC(0-t) at 12 h [5]: 1270 ng·h/mL; bioavailability [6]: 14.8%; Tmax [7]: 0.5 h; half-life [8]: 1.1 h; MRT last at 12 h [9]: 0.7 h; Cmax [10]: 448 ng/mL; clearance [11]: 96.7 mL/min/kg; MRT last at 12 h [12]: 1.3 h; AUC(0-t) at 12 h [13]: 565 ng·h/mL; Cmax [14]: 970 ng/mL
Cc1ccccc1CNc1nc(=O)c2c([nH]1)CCN(Cc1cccc(C#N)c1)C2 | > 10000 | > 10000 | 
Cc1cccc(CN2CCc3[nH]c(NCc4ccccc4)nc(=O)c3C2)c1 | 2250 | 2400 | 
COc1ccccc1CNc1nc(=O)c2c([nH]1)CCN(Cc1ccccc1)C2 | > 10000 | > 10000 | 
O=c1nc(NCc2ccc(F)c(F)c2)[nH]c2c1CN(Cc1cc(F)cc(F)c1)CC2 | 510 | 30 | Ratio IC50 (MV4-11 [3]): 20
O=c1nc(NCc2ccccc2F)[nH]c2c1CN(Cc1ccccc1)CC2 | 1350 | 930 | 
O=c1nc(NCc2ccccc2)[nH]c2c1CN(Cc1ccccc1)CC2 | 1340 | > 10000 | 
O=c1nc(NCC2CC2)[nH]c2c1CN(Cc1ccccc1)CC2 | > 10000 | > 10000 | 
O=c1nc(NCc2ccc3c(c2)OCO3)[nH]c2c1CN(Cc1ccccc1)CC2 | 520 | 2900 | 
O=c1nc(NCc2ccccc2)[nH]c2c1CN(Cc1cccc(Cl)c1)CC2 | 1090 | 930 | 
O=c1nc(NCc2ccccc2)[nH]c2c1CN(Cc1ccc(F)c(F)c1)CC2 | 2100 | 1200 | 
N#Cc1cccc(CN2CCc3[nH]c(NCc4ccc(F)cc4)nc(=O)c3C2)c1 |  |  | ΔTm [15]: 18.3 °C
N#Cc1cccc(CN2CCc3[nH]c(NCc4ccc(C(F)(F)F)cc4)nc(=O)c3C2)c1 | > 10000 | > 10000 | 
N#Cc1cccc(CN2CCc3[nH]c(NCc4ccccc4)nc(=O)c3C2)c1 | 610 | 450 | 
O=c1nc(NCc2ccccc2)[nH]c2c1CN(CCc1ccccc1)CC2 | > 10000 | > 10000 | 
O=c1nc(NCc2ccc3c(c2)OCO3)[nH]c2c1CN(Cc1ccc(Cl)c(Cl)c1)CC2 | > 10000 | > 10000 | 
O=c1nc(NCc2ccc(F)cc2)[nH]c2c1CN(Cc1ccccc1)CC2 | 1000 | 360 | 
O=c1nc(NCc2ccc(C(F)(F)F)cc2)[nH]c2c1CN(Cc1ccccc1)CC2 | 2100 | 1200 | 
O=c1nc(NCc2ccccc2Br)[nH]c2c1CN(Cc1ccccc1)CC2 | > 10000 | > 10000 | 
O=c1nc(NCc2ccccc2)[nH]c2c1CN(Cc1cc(F)cc(F)c1)CC2 | 950 | 900 | 
